Source: the NIST ThermoML archive (doi:10.1021/je100774p)

Test: mn = molality of the nth substance listed, in mol/kg
Conditions: 101 kPa, Liquid; for viscosity: Capillary tube (Ostwald / Ubbelohde) method

O=C(O)c1cccnc1 [3-carboxylpyridine] + O
Conditions | mass density, 293.15 K [kg/m3] | mass density, 298.15 K [kg/m3] | mass density, 303.15 K [kg/m3] | mass density, 308.15 K [kg/m3] | mass density, 313.15 K [kg/m3] | viscosity, 293.15 K [mPa·s] | viscosity, 298.15 K [mPa·s] | viscosity, 303.15 K [mPa·s] | viscosity, 308.15 K [mPa·s] | viscosity, 313.15 K [mPa·s]
m1 = 0.004283 | 998.41 | 997.22 | 995.82 | 994.28 | 992.41 | 1.004 | 0.8912 | 0.7981 | 0.7201 | 0.6538
m1 = 0.006512 | 998.5 | 997.3 | 995.95 | 994.35 | 992.59 | 1.005 | 0.8917 | 0.7985 | 0.7205 | 0.6543
m1 = 0.008188 | – | – | – | – | – | 1.006 | 0.8923 | 0.7989 | 0.7211 | 0.6547
m1 = 0.00819 | 998.57 | 997.41 | 996.01 | 994.4 | 992.64 | – | – | – | – | –
m1 = 0.01628 | 998.83 | 997.73 | 996.31 | 994.75 | 992.98 | 1.007 | 0.8941 | 0.8005 | 0.7224 | 0.6561
m1 = 0.03262 | 999.56 | 998.36 | 996.97 | 995.44 | 993.51 | 1.011 | 0.8978 | 0.8035 | 0.7254 | 0.6588
m1 = 0.04903 | 1000.25 | 999.09 | 997.72 | 996.14 | 994.22 | 1.015 | 0.9012 | 0.8067 | 0.7282 | 0.661
m1 = 0.06555 | 1000.89 | 999.71 | 998.32 | 996.72 | 994.91 | 1.018 | 0.9039 | 0.8098 | 0.7312 | 0.6639
m1 = 0.0821 | 1001.66 | 1000.45 | 999.03 | 997.41 | 995.56 | 1.022 | 0.9074 | 0.8127 | 0.7338 | 0.6662
m1 = 0.09871 | 1002.29 | 1001.09 | 999.67 | 998.05 | 996.21 | 1.026 | 0.9109 | 0.8158 | 0.7364 | 0.6686
m1 = 0.1154 | 1003.05 | 1001.8 | 1000.33 | 998.71 | 996.84 | 1.029 | 0.9144 | 0.8192 | 0.7395 | 0.6713
m1 = 0.1321 | 1003.75 | 1002.51 | 1001.03 | 999.39 | 997.49 | 1.033 | 0.9178 | 0.8225 | 0.742 | 0.6742

O [water] + O=C(O)c1cccnc1
m2 = 0
Conditions | viscosity [mPa·s]
293.15 K | 1.003
298.15 K | 0.8904
303.15 K | 0.7973
308.15 K | 0.7194
313.15 K | 0.653
